Source: PubChem BioAssay AID1552 (Sanford-Burnham Center for Chemical Genomics, 2009)
Activity calls are given as the source filed them. The rule behind the calls is not given here.

Biological target: Ubiquitin-conjugating enzyme E2 N (Homo sapiens) (UniProt P61088)
Assay: NMR detection of UBE2N ligand binding – biophysical, purified protein (AID 1552)
Conditions: NMR binding to purified UBE2N

Chain of Ubiquitin-conjugating enzyme E2 N (Homo sapiens) (P61088 whole entry, looked up): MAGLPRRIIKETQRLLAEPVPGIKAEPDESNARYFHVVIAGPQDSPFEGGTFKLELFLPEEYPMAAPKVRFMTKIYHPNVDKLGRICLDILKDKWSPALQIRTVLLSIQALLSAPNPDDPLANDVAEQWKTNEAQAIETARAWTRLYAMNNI

Compound	Kd
Cc1cc(C(=O)Nn2cnnc2)cs1	> 4 mM (inactive)
NS(=O)(=O)c1ccc(NC(=O)c2ccccc2F)cc1	> 4 mM (inactive)
NC(=O)c1ccccc1N=Cc1ccco1	> 4 mM (inactive)
O=C(CO)N/N=C/c1ccccc1F	> 4 mM (inactive)
CC(=O)O[C@@H]1c2c(ccc3ccc(=O)oc23)OC(C)(C)[C@@H]1OC(=O)CC(C)C	> 4 mM (inactive)
CC(=O)Nc1ccc(S(=O)(=O)N(C)C)cc1	> 4 mM (inactive)
Cc1cc(=O)cc(C)n1-c1ccccc1N1CCOCC1	> 4 mM (inactive)
Cc1ccc(-c2nn3c(C)nnc3s2)cc1N	> 4 mM (inactive)
COc1ccc(-c2coc3c(O)c(OC)ccc3c2=O)cc1	> 4 mM (inactive)
Cc1cccc(C(C)C)c1NC(=O)c1cccnc1	> 4 mM (inactive)
CNS(=O)(=O)c1ccc2[nH]c(=O)[nH]c2c1	> 4 mM (inactive)
C=C(C)[C@H]1CC=C(C(=O)O)CC1	> 4 mM (inactive)
COC(=O)c1ccc2snnc2c1	> 4 mM (inactive)
COC(=O)C(O)[C@@H]1C2(C)C(=O)[C@@H](CC3=C4CC(=O)O[C@@H](c5ccoc5)[C@]4(C)CCC32)[C@H](OC(C)=O)C1(C)C (stereo not given in full)	> 4 mM (inactive)
CC(=O)Nc1cc(N2C(=O)C=CC2=O)ccc1Cl	> 4 mM (inactive)
CCCn1c(C)cc(=O)[nH]c1=O	> 4 mM (inactive)
Cn1c(-c2ccccc2F)n[nH]c1=S	> 4 mM (inactive)
CC[C@H]1CN2CCC1C[C@@H]2[C@@H](O)c1ccnc2ccc(OC)cc12 (stereo not given in full)	> 4 mM (inactive)
O=C(Nc1ccccc1)NC1CCS(=O)(=O)C1 (stereo not given)	> 4 mM (inactive)
COC1=C(OC)C(=O)C(C/C=C(\C)CC/C=C(\C)CC/C=C(\C)CC/C=C(/C)CC/C=C(\C)CC/C=C(\C)CC/C=C(\C)CC/C=C(\C)CC/C=C(\C)CCC=C(C)C)=C(C)C1=O	> 4 mM (inactive)
O=C(CSc1ncccn1)Nc1nccs1	> 4 mM (inactive)
Nc1c(C(=O)O)sc2ncccc12	> 4 mM (inactive)
COc1cc(O)c(C(C)=O)c(OC)c1	> 4 mM (inactive)

Compound	Kd
O=C(NCc1ccccc1F)c1cccs1	> 4 mM (inactive)
O=C(c1cccc(-n2cnnn2)c1)N1CCOCC1	> 4 mM (inactive)
CC(=O)NCCc1cc2ccc(C)c(C)c2[nH]c1=O	> 4 mM (inactive)
O=C(NC(=S)NN1CCOCC1)c1cccs1	> 4 mM (inactive)
Cc1cc(C)cc(C(=O)N2CCC(C(N)=O)CC2)c1	> 4 mM (inactive)
Cc1ccc2cc(CO)ccc2n1	> 4 mM (inactive)
N#C/C(=C\c1ccc[nH]1)S(=O)(=O)c1ccccc1	> 4 mM (inactive)
COc1cc(N)ncn1	> 4 mM (inactive)
COc1ccc(C(C)=O)c(O)c1	> 4 mM (inactive)
C[C@@H]1[C@H]2[C@H](O[C@@H]3O[C@H](CO)[C@@H](O)[C@H](O)[C@H]3O)OC=C(C(=O)O)[C@H]2C[C@@H]1O	> 4 mM (inactive)
NC(=O)CSc1nnc(-c2ccncc2)o1	> 4 mM (inactive)
CN1CCN(c2ccc(N)cc2)CC1	> 4 mM (inactive)
N#CCc1nc2ccccc2s1	> 4 mM (inactive)
O=C1CSC(=Nc2ccccc2)N1	> 4 mM (inactive)
Nc1cc(N)nc(SCc2ccccc2)n1	> 4 mM (inactive)
COc1cccc2c(=O)n(CC(N)=O)ccc12	> 4 mM (inactive)
c1cncc(C2CCCCN2)c1 (stereo not given)	> 4 mM (inactive)
O=C(Nc1ccon1)c1ccccc1Cl	> 4 mM (inactive)
NC(=O)CC1Nc2cccc3cccc(c23)NC1=O (stereo not given)	> 4 mM (inactive)
CCOC(=O)c1ccc2c(c1)nnn2C	> 4 mM (inactive)
CC(=O)C1CC[C@H]2C3CC[C@H]4C[C@H](O)CC[C@]4(C)C3CC[C@]12C (stereo not given in full)	> 4 mM (inactive)
CS(=O)(=O)c1cccc(C(=O)Nc2nccs2)c1	> 4 mM (inactive)
Cc1cc(N)on1	> 4 mM (inactive)

Compound	Kd
O=C1C[C@@H](c2ccc(O)cc2)Oc2cc(O)cc(O)c21	> 4 mM (inactive)
COc1cc2cc3c4cc(OC)c(OC)cc4cc[n+]3c(C)c2cc1OC	> 4 mM (inactive)
Cc1cc(NC(=O)CSc2nncn2C)no1	> 4 mM (inactive)
COc1ccccc1NC(=O)NC(N)=O	> 4 mM (inactive)
CCOC(=O)C1CCN(Cc2ccccc2)CC1	> 4 mM (inactive)
CCC(=O)NC(=S)Nc1ccc(O)cc1	> 4 mM (inactive)
Nc1nc(SCc2ccc3c(c2)OCO3)n[nH]1	> 4 mM (inactive)
CN1C(=O)CC[C@H]1c1cccnc1	> 4 mM (inactive)
CCOC(=O)C1CCNCC1	> 4 mM (inactive)
OC[C@H]1O[C@@H](O[C@H]2[C@H](O)[C@@H](O)[C@@H](O)O[C@@H]2CO)[C@H](O)[C@@H](O)[C@@H]1O	> 4 mM (inactive)
OCc1nccn1Cc1ccccc1	> 4 mM (inactive)
COc1cc2c(cc1O)CCNC2C (stereo not given)	> 4 mM (inactive)
NC(Cc1c[nH]c2ccccc12)C(=O)O (stereo not given)	> 4 mM (inactive)
NC(=O)c1ccc(NC(=O)c2cccnc2)cc1	> 4 mM (inactive)
COC(=O)c1cnccc1C(F)(F)F	> 4 mM (inactive)
C=C(C)C1Cc2c(ccc(C(=O)O)c2O)O1 (stereo not given)	> 4 mM (inactive)
Nc1cc(C(=O)N2CCCC2)cc(C(=O)N2CCCC2)c1	> 4 mM (inactive)
CC1(C)C2CC(=O)[C@]3(C)C(CC[C@@]4(C)[C@H](c5ccoc5)OC(=O)C5OC543)[C@@]2(C)[C@@H](O)C[C@H]1O (stereo not given in full)	> 4 mM (inactive)
CNC(=O)Nc1ccc(C(=O)NC)cc1	> 4 mM (inactive)
CC(=O)C1CCC2C3CCC4C[C@H](O)CCC4(C)C3C[C@H](O)C12C (stereo not given in full)	> 4 mM (inactive)
O=S(=O)(NCc1ccco1)N1CCOCC1	> 4 mM (inactive)
O=C(O)C1=Cc2ccccc2OC1	> 4 mM (inactive)
CCC1=Nc2ccccc2-c2nnc(SC)nc2O1	> 4 mM (inactive)

Compound	Kd
CC(C)CCCC(C)[C@H]1CCC2C3CC[C@H]4CC(=O)CC[C@]4(C)C3CC[C@@]21C (stereo not given in full)	> 4 mM (inactive)
COC1=CC(C)[C@@H]2C[C@H]3OC(=O)C[C@H]4C(C)=C(OC)C(=O)C([C@@]34C)[C@@]2(C)C1=O (stereo not given in full)	> 4 mM (inactive)
Cc1cc(NC(=O)c2cnn3cccnc23)no1	> 4 mM (inactive)
O=C1CNC(=O)/C1=C/c1ccc(O)cc1	> 4 mM (inactive)
CCn1ccc(C(=O)Nc2nccs2)n1	> 4 mM (inactive)
COc1cc2c(cc1OC)Cc1cc(OC)c(OC)cc1Cc1cc(OC)c(OC)cc1C2	> 4 mM (inactive)
Cc1nn2c(nc1=O)SCC2(O)c1ccccc1 (stereo not given)	> 4 mM (inactive)
CCOC(=O)c1cnc2cc(C)nn2c1C	> 4 mM (inactive)
COCCn1c(C)cc(O)cc1=O	> 4 mM (inactive)
Cc1nc2ccccc2c(=O)n1/N=C/c1ccncc1	> 4 mM (inactive)
CNC(=O)C(=O)Nc1c(C)cccc1C	> 4 mM (inactive)
CCn1cnc2sc(C(=O)O)c(C)c2c1=O	> 4 mM (inactive)
O=C(O)C1CC(=O)N(CCc2ccc(Cl)cc2)C1 (stereo not given)	> 4 mM (inactive)
CC(=O)Nc1cc2c(cc1C(=O)C(C)C)OCCO2	> 4 mM (inactive)
CC1CCN(C(=O)c2ccc3c(c2)OCCO3)CC1	> 4 mM (inactive)
CC(=O)Nc1ccc(S(N)(=O)=O)cc1	> 4 mM (inactive)
CCC(C)C(=O)O[C@H]1[C@H](O)C2C(CN3CC(C)CCC3[C@@]2(C)O)C2C[C@]34O[C@]5(O)C(OC(=O)C(C)(O)C(C)O)CC[C@@]3(C)C5C(OC(C)=O)[C@@H](OC(C)=O)C4[C@@]21O (stereo not given in full)	> 4 mM (inactive)
CCOC(=O)Nc1ccc2c(C)cc(=O)oc2c1	> 4 mM (inactive)
COc1ccc2cc3[n+](cc2c1OC)CCc1cc2c(cc1-3)OCO2	> 4 mM (inactive)
OCc1cccc2c1OCO2	> 4 mM (inactive)
CCOC(=O)C1C(C=C(C)C)C1(C)C (stereo not given)	> 4 mM (inactive)
CS(=O)(=O)Nc1ccccc1C(=O)c1ccccc1	> 4 mM (inactive)
CC1(C(=O)O)CC2C=CC1C2 (stereo not given)	> 4 mM (inactive)

Compound	Kd
Cc1nc(NC(=O)c2cccnc2)ccc1Br	> 4 mM (inactive)
Cc1nn(CC(=O)Nc2ccccc2)c(=O)c2ccccc12	> 4 mM (inactive)
Cc1cc2ncn(S(=O)(=O)N3CCOCC3)c2cc1C	> 4 mM (inactive)
NCCC(=O)N[C@@H](Cc1cnc[nH]1)C(=O)O	> 4 mM (inactive)
CC1(C)C=CC(=O)[C@@]2(C)C1CC(=O)[C@]1(C)C2CC[C@@]2(C)[C@H](c3ccoc3)OC(=O)C3OC321 (stereo not given in full)	> 4 mM (inactive)
O=c1[nH]cnc2nn(-c3ccccc3)nc12	> 4 mM (inactive)
Cc1nn2c(=O)c(NC(=O)c3ccccc3)cnc2s1	> 4 mM (inactive)
COCC(=O)/C=C1\Sc2ccccc2N1C	> 4 mM (inactive)
N[C@@H](CCC(=O)N[C@@H](CS)C(=O)NCC(=O)O)C(=O)O	> 4 mM (inactive)
COc1ccc(CN2CCNC(=O)C2CC(=O)O)cc1C (stereo not given)	> 4 mM (inactive)
Cc1cc2c(=O)n(C)c(SCC(N)=O)nc2s1	> 4 mM (inactive)
CC1CCCN(C/C(O)=C(\C#N)c2nc3ccccc3[nH]2)C1 (stereo not given)	> 4 mM (inactive)
CC(=O)OCc1cc(=O)n(C)c(=O)n1C	> 4 mM (inactive)
S=C(c1ccc(N2CCOCC2)cc1)N1CCCCC1	> 4 mM (inactive)
CSc1ccc(C2NC(=O)CCC2[N+](=O)[O-])cc1 (stereo not given)	> 4 mM (inactive)
Cc1cc(C)n(-c2nncn2N)n1	> 4 mM (inactive)
Nc1ccccc1-c1nc2ccccc2[nH]1	> 4 mM (inactive)
Cc1occc1C(=O)NC1CCN(C)CC1	> 4 mM (inactive)
COc1cccc(NC(=O)c2nc3ncccn3n2)c1	> 4 mM (inactive)
O=S(=O)(Nc1cccnc1Cl)c1ccccc1	> 4 mM (inactive)
Cc1cc(NS(=O)(=O)Cc2ccccc2)no1	> 4 mM (inactive)
NC(=O)c1ccc(N2C(=O)CCC2=O)cc1Cl	> 4 mM (inactive)
O=C(Nc1ccncc1)Nc1ccc(F)cc1F	> 4 mM (inactive)
